In the experiment the target is T1, estrogen receptor (Homo sapiens, UniProt P03372).
T1 construct: since the MCF-7 cells express estrogen receptors; endogenous in cells; host or cells: MCF-7 human mammary carcinoma cells, infected with adenovirus 5-ERE-tk-luciferase (reporter only)
T1 sequence (P03372 1-595): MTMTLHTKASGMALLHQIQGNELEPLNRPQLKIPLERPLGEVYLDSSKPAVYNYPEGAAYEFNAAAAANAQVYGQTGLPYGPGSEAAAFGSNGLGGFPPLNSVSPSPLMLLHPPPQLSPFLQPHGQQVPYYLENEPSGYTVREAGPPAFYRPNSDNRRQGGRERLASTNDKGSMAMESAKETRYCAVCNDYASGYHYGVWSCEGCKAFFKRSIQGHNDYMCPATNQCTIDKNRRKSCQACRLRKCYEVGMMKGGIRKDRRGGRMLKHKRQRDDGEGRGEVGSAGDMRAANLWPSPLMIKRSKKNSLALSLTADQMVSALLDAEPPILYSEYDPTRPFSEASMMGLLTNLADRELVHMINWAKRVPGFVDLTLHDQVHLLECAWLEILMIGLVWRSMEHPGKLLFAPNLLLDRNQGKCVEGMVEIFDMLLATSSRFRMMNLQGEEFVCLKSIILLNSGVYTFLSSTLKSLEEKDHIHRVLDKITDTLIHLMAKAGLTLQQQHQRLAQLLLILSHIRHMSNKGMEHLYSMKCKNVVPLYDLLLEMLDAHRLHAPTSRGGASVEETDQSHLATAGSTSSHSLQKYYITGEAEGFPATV
Put plainly: Estrogen antagonist/agonist activity in MCF-7 cells infected with adenovirus 5-ERE-tk-luciferase (luciferase reporter). The class given is cell-based. The settings on record: antagonist mode, co-dosed with 10 pM 17β-estradiol, 24 h treatment. An excerpt: Estrogen antagonist activity was shown for representative compounds of this invention in a standard pharmacological test procedure using MCF-7 cells transfected with an estrogen receptor. When administered orally, the compounds of this invention act at least partially as prodrugs for the corresponding hydroxylated compounds disclosed in EP 802183. Accordingly, the compounds of this invention are tissue selective estrogens, meaning that in certain tissue containing estrogen receptors, the compounds will act as estrogen agonists, and in other tissue containing estrogen receptors, the compounds will act as antagonists. […] The cell lysates (20 uL) were transferred to a 96 well luminometer plate, and luciferase activity was measured in a MicroLumat LB 96 P luminometer (EG and G Bethold) using 100 uL/well of luciferase substrate (Promega Corporation). […] Following the injection of the substrate, luciferase activity was measured for 10 seconds after a 1 second delay. The data were transferred from the luminometer to a Macintosh personal computer and analyzed using the JMP software (SAS institute); this program subtracts the background reading from the luciferase measurement for each well and then determine the mean and standard deviation of each treatment. […]
(In general: A reporter such as luciferase makes a cellular process visible.)

Consider `Cc1c(-c2ccc(O)cc2)n(Cc2ccc(OCCN3CCCCCC3)cc2)c2ccc(OC3OC(C(=O)O)C(O)C(O)C3O)cc12` (centres unmarked) [Compound 30, 1-[4-(2-Azepan-1-yl-ethoxy)-benzyl]-2-(4-hydroxy-phenyl)-3-methyl-1H-indol-5-ol 5-O-glucuronide], for which the IC50 (usually the concentration at which inhibition is half-maximal) came out at 210 nM.

`Cc1c(-c2ccc(OC3OC(C(=O)O)C(O)C(O)C3O)cc2)n(Cc2ccc(OCCN3CCCCCC3)cc2)c2ccc(O)cc12` (centres unmarked) [Compound 38, 1-[4-(2-Azepan-1-yl-ethoxy)-benzyl]-2-(4-hydroxy-phenyl)-3-methyl-1H-indol-5-ol 4-O-glucuronide] came in with an IC50 of 1100 nM.

Source of the values: patent EP1212335B1, “GLUCOPYRANOSIDES CONJUGATES OF 2-(4-HYDROXY-PHENYL)-1- 4-(2-AMIN-1-YL-ETHOXY)-BENZYL]-1H-INDOL-5-OLS” (Wyeth, priority 1999, dated 2001).
